Here are results for twelve compounds from patent US8623821B2, “Zymogen activators” (Genentech, Inc., priority 2011, dated 2014).

“Also recorded” adds a separate entry of the source. Where a SMILES comes first, the peptide text is derived from it. Bridges are numbered along the chain shown (N, C = ends). [ ]: non-standard residue; d: D form. Where only a bound is given, the exact number is not on record here.

One series has as its target T1, scHGF β (Homo sapiens, UniProt P14210, R494E).
T1 construct: the scHGF β-chain (residues Asn^479 to Ser^728) contains the R494E mutation; His-tag (C); made in house; host or cells: insect cells (pAcGP67 vector)
The experiment in a line: scHGF β activation/Met binding assay (biolayer interferometry). As to conditions: for binding to scHGF β / activation of Met binding, in words: Met-coated sensor; for Kd: peptide titration with 0.5 μM scHGF β, biotinylated Met ECD on sensor, ±stdev of n=3; for AC50: peptide-dependent activation of zHGF β binding to surface immobilized Met ECD, read-out: apparent activation constant (AC50); for fold more potent than previously described peptides derived from the native HGF β N-terminus: versus Landgraf et al. 2010 peptides. The method, then:
(§1) Met binding assays were carried out utilizing the OctetRed™ biolayer interferometry instrument (ForteBio, Inc.) as reported previously (Landgraf, K. E. et al. (2010) J Biol Chem 285: 40362-72). Biotinylated Met ECD (Sema/PSI-AviTag) was captured on the surface of streptavidin optical sensor tips (SA biosensors, ForteBio, Inc.), and transferred into buffer containing 0.5 μM scHGF β-chain variants in the presence of increasing concentration of indicated peptides. Association and dissociation reactions were monitored to ensure reversible binding between scHGF β and Met. Binding was quantified using the steady-state levels of surface response from the association reaction. Equilibrium constants were derived by least squares fitting of the titration data to a single-site binding equation. Errors reported are ±stdev of n=3 independent experiments.
Based on the finding that the consensus ZAPs contain features consistent with binding and inserting into the activation pocket, several related peptides were synthesized and utilized in a previously established scHGF β activation assay to assess their affinities and ability to active Met binding (Landgraf, K. E. et al. (2010) J Biol Chem 285: 40362-72). Since scHGF β can only weakly interact with the Met Sema-PSI domain compared to the active HGF β form, biolayer interferometry was used in the activation assay to measure the ability of a peptide to directly enhance the binding affinity of scHGF β to a streptavidin sensor surface coated with biotinylated Met (Landgraf, K. E. et al. (2010) J Biol Chem 285: 40362-72). Thus, titration of an activator peptide should result in a significant increase in the surface response signal due to enhanced scHGF β binding to Met.

A further series concerns the target scHGF (Homo sapiens, UniProt P14210, R494E). The experiment in a line: BxPC-3 cell survival assay, peptide titrations in the presence of scHGF. The series is classed as cell-based. The following applies: for activation of scHGF / cell survival, in words: peptide plus scHGF. The arrangement: Full-length recombinant HGF proteins were expressed in 1-liter fermentation cultures of Chinese hamster ovary (CHO) cells; made in house; host or cells: CHO cells (scHGF). The protocol:
(§2) BxPC-3 cells were obtained from ATCC and maintained in cell culture medium (RPMI, 10% FBS (Sigma), 50 U/ml penicillin/50 μg/ml streptomycin, 2 mM glutamine). For the survival assay, cells were plated at 10,000 cells/well in 96 well tissue culture plates (Falcon 353072) in 50 μl assay diluent (RPMI, 0.1% BSA (Sigma) 50 U/ml penicillin/50 μg/ml streptomycin, 2 mM glutamine). Cells were allowed to attach for 1-2 h in a 37° C. CO2 incubator. Human HGF proteins (HGF, scHGF or scHGF plus peptide titrations) were pre-incubated at room temperature in assay diluent. HGF/peptide mixtures were added to cells in microtiter plates in triplicate at 50 μl per well and plates were incubated at 37° C. in a CO2 incubator. Final concentrations of HGF variants were 400 ng/ml and peptide concentrations were titrated accordingly. After 72 h, 25 μl alamar Blue (Serotec, BUF012B) was added to each well and incubate an additional 2 h at 37° C. in a CO2 incubator. Plates were agitated vigorously for 10 min at room temperature, and fluorescence was read at 530-590 nm in a fluorescent plate reader.
Using Bx-PC3 cells, peptide titrations in the presence of scHGF were performed and observed robust activation was seen of scHGF signaling through Met, which reached levels equivalent HGF-induced signaling.
Cellular assays were used to address whether the optimized ZAPtides act as allosteric activators of pro-HGF and stimulate Met signaling in biologically relevant settings of cell survival and migration. […] Importantly, ZAPtides required the presence of scHGF as well as induced […] cell survival that was antagonized by an HGF-blocking anti-Met antibody, each confirming Met pathway selectivity.

A further series in a line: Peptide solubility. The series is classed as physicochemical.
A further series deals with Met. The experiment in a line: Binding of peptide-zHGF β complex to surface immobilized Met ECD (biolayer interferometry). The following applies: read-out: affinity of peptide-zHGF β complex for Met. The method, then:
as §1

Another series deals with T2, scHGF β D672N mutant (Homo sapiens, UniProt P14210, D672N/R494E).
T2 construct: the scHGF β-chain (residues Asn^479 to Ser^728) contains the R494E mutation; His-tag (C); made in house; host or cells: insect cells (pAcGP67 vector)
T2 sequence (P14210 479-728 R494E/D672N): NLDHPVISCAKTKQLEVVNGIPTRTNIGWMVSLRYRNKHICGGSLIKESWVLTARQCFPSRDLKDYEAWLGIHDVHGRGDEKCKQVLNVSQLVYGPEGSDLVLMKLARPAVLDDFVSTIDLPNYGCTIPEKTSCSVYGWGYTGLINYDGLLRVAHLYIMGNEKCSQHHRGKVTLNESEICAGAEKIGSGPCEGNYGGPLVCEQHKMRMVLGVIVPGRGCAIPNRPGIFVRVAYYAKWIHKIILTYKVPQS
Put plainly: scHGF β activation/Met binding assay with activation-pocket mutant. The following applies: Asp672 to Asn in activation pocket. The protocol:
as §1
However, the partial activity observed with Asp in position 3 was consistent with the fact that the native sequence contains a highly similar Asn residue, but the strained backbone conformation necessary to accommodate the Asp during N-terminal insertion would be energetically unfavorable. […] In addition, the solubility of this peptide variant is enhanced by the polar aspartic acid side chain while maintaining increased activity compared to the IVDG.14 variant.

The subject of a further series is BxPC-3 cells. Put plainly: BxPC-3 cell survival assay, HGF proteins alone. The series is classed as cell-based, human. The protocol: as §2, with “Final concentrations of HGF variants were 400 ng/ml and peptide concentrations were titrated accordingly.” left out

T1 sequence (P14210 479-728 R494E): as the sequence (P14210 479-728 R494E/D672N) above, with N194D counted along it
T1 sequence (P08581 27-515 partner limits assumed): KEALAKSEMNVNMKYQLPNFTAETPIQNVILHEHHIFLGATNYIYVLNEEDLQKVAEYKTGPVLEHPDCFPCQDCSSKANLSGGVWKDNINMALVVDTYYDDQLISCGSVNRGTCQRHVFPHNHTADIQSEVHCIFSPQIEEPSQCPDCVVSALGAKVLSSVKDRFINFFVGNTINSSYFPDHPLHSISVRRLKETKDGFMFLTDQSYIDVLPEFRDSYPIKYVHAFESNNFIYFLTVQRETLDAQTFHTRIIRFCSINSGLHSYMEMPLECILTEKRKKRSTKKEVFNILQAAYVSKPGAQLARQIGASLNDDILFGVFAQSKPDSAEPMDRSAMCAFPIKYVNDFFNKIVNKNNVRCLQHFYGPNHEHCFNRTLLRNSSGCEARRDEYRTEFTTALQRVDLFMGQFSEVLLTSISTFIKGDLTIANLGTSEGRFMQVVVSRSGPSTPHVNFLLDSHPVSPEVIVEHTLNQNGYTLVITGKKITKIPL
Sequence of scHGF (P14210 32-728 R494E): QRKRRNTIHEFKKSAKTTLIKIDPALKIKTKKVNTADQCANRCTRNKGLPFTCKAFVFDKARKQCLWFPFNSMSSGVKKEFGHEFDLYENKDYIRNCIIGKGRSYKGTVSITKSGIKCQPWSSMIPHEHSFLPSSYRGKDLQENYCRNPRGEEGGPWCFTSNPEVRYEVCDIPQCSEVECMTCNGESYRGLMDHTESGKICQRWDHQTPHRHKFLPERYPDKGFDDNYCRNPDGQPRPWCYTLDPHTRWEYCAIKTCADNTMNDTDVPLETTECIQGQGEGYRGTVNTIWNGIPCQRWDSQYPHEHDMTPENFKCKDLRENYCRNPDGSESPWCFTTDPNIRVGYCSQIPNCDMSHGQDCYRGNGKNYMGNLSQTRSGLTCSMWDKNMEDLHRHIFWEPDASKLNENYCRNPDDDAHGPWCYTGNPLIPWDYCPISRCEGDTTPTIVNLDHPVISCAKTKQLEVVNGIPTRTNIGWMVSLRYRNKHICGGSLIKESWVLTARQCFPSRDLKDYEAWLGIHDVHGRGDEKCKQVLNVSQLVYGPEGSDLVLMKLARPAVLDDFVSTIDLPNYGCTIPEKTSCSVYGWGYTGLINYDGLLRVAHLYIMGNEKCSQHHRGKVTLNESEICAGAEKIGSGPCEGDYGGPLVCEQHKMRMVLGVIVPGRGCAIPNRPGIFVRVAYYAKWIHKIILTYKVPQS

“G V G G Y P W W M D V (GVGGYPWWMDV) [GVGG.14]”: in the series with scHGF β, the “binding to scHGF β / activation of Met binding, in words” value (“binding to scHGF β / activation” for short) is “lack of activity; also recorded: completely abolished activity”. Besides, in the series with scHGF (BxPC-3 cells), the “activation of scHGF / cell survival, in words” value is “no detectable activity”.

With `CC[C@H](C)[C@H](N)C(=O)N[C@H](C(=O)NCC(=O)NCC(=O)N[C@H]1CSSC[C@@H](C(=O)N[C@H](C(N)=O)[C@@H](C)CC)NC(=O)[C@H](CCC(=O)O)NC(=O)[C@H](CCC(=O)O)NC(=O)[C@H](CCCNC(=N)N)NC(=O)[C@H](CC(=O)O)NC(=O)[C@H](CCSC)NC(=O)[C@H](Cc2c[nH]c3ccccc23)NC(=O)[C@H](Cc2ccc(O)cc2)NC(=O)[C@@H]2CCCN2C1=O)[C@@H](C)CC` [ZAP.03] (H-IIGGCPYWMDREECI-NH2; disulfide 5-14), on scHGF β, the Kd was found to be 0.3 ± 0.1 µM and the AC50 came out at 0.3 µM.

As to `CC[C@H](C)[C@H](N)C(=O)N[C@H](C(=O)NCC(=O)NCC(=O)N[C@@H](CO)C(=O)N1CCC[C@H]1C(=O)N[C@@H](Cc1ccc(O)cc1)C(=O)N[C@@H](Cc1c[nH]c2ccccc12)C(=O)N[C@@H](CCSC)C(=O)N[C@@H](CC(=O)O)C(=O)N[C@@H](CCCNC(=N)N)C(=O)N[C@@H](CCC(=O)O)C(=O)N[C@@H](CCC(=O)O)C(=O)N[C@@H](CO)C(=O)N[C@H](C(N)=O)[C@@H](C)CC)[C@@H](C)CC` [ZAP.03S, I I G G S P Y W M D R E E S I] (H-IIGGSPYWMDREESI-NH2; N-terminus assumed), on scHGF β, the Kd amounted to 59 ± 30 µM and the “binding to scHGF β / activation” value is “significantly impaired”.

Take “I V G D Y P W W M D V (IVGDYPWWMDV) [IVGD.14]”: the “binding to scHGF β / activation” value in the series with scHGF β is “no detectable binding”.

`CC[C@H](C)[C@H](N)C(=O)N[C@H](C(=O)NCC(=O)NCC(=O)N[C@@H](CC(=O)O)C(=O)N1CCC[C@H]1C(=O)N[C@@H](Cc1ccc(O)cc1)C(=O)N[C@@H](Cc1c[nH]c2ccccc12)C(=O)N[C@H](C(=O)N1CCC[C@H]1C(=O)N[C@@H](Cc1c[nH]cn1)C(=O)N1CCC[C@H]1C(=O)NCC(=O)N[C@@H](CC(=O)O)C(=O)N[C@@H](C)C(N)=O)C(C)C)[C@@H](C)CC` [ZAP.01, I I G G D P Y W V P H P G D A] (H-IIGGDPYWVPHPGDA-NH2; N-terminus assumed) gave a Kd on scHGF β of 6 ± 1 µM. Further, the “EC50 of scHGF activation, order of magnitude in words” value on scHGF (Bx-PC3 cell survival, dose-titrations) is on record as “micromolar”.

Consider `CC[C@H](C)[C@H](N)C(=O)N[C@H](C(=O)N[C@H](CC(=O)O)C(=O)NCC(=O)N[C@@H](Cc1ccc(O)cc1)C(=O)N1CCC[C@H]1C(=O)N[C@@H](Cc1c[nH]c2ccccc12)C(=O)N[C@@H](Cc1c[nH]c2ccccc12)C(=O)N[C@@H](CCSC)C(=O)N[C@@H](CC(=O)O)C(=O)N[C@H](C(N)=O)C(C)C)C(C)C` [IVdG.14] (H-IV[dD]GYPWWMDV-NH2), for which, in the series “Peptide solubility”, the “solubility, in words” value was “enhanced”. The “fold more potent than previously described peptides derived from the native HGF β N-terminus” value on scHGF β turned out to be 100 fold.

Take `CC[C@H](C)[C@H](N)C(=O)N[C@H](C(=O)NCC(=O)NCC(=O)N[C@@H](CC(=O)O)C(=O)N[C@@H](Cc1ccc(O)cc1)C(=O)N[C@@H](Cc1c[nH]c2ccccc12)C(=O)N[C@@H](Cc1c[nH]c2ccccc12)C(=O)N[C@H](C(=O)N1CCC[C@H]1C(=O)N[C@H](C(N)=O)[C@@H](C)CC)C(C)C)C(C)C` [ZAP.09, IVGGDYWWVPI] (H-IVGGDYWWVPI-NH2; N-terminus assumed): the AC50 on scHGF β was found to be 42 µM.

For `CC[C@H](C)[C@H](N)C(=O)N[C@H](C(=O)N[C@@H](CC(=O)O)C(=O)NCC(=O)N[C@@H](Cc1ccc(O)cc1)C(=O)N1CCC[C@H]1C(=O)N[C@@H](Cc1c[nH]c2ccccc12)C(=O)N[C@@H](Cc1c[nH]c2ccccc12)C(=O)N[C@@H](CCSC)C(=O)N[C@@H](CC(=O)O)C(=O)N[C@H](C(N)=O)C(C)C)C(C)C` [IVDG.14, I V D G Y P W W M D V] (H-IVDGYPWWMDV-NH2; N-terminus assumed), on scHGF (BxPC-3 cells), the “activation of scHGF / cell survival, in words” value is “partial scHGF signaling activity”.

Regarding `CC[C@H](C)[C@H](N)C(=O)N[C@H](C(=O)NCC(=O)NCC(=O)N[C@@H](Cc1ccc(O)cc1)C(=O)N1CCC[C@H]1C(=O)N[C@@H](Cc1c[nH]c2ccccc12)C(=O)N[C@@H](Cc1c[nH]c2ccccc12)C(=O)N[C@@H](CCSC)C(=O)N[C@@H](CC(=O)O)C(=O)N[C@H](C(N)=O)C(C)C)C(C)C` [IVGG.14, I V G G Y P W W M D V] (H-IVGGYPWWMDV-NH2), on Met, the Kd is 0.69 µM. Besides, on scHGF β, the “fold improvement of AC50 over previous activators” value is above 90 fold, the Kd is 34 ± 3 µM, the AC50 was 21 µM and the “fold more potent than previously described peptides derived from the native HGF β N-terminus” value is recorded as “ca. 60 fold”. In addition, at scHGF (BxPC-3 cells, serum starvation, 72 h, alamar Blue, read-out: EC50 of activation of scHGF, cell survival), the EC50 is around 20 µM. Moreover, the “activity of peptide with scHGF β D672N” value on scHGF β D672N mutant was “lack of activity; also recorded: completely abolished activity”.

In the case of “I V D D Y P W W M D V (IVDDYPWWMDV) [IVDD.14]”, the “binding to scHGF β / activation” value with scHGF β is on record as “no detectable binding”.

As to “HGF: proteolytically activated two-chain human hepatocyte growth factor, recombinant”, the “stimulation of cell survival by HGF protein alone” value in the series with BxPC-3 cells (200 ng/ml (FIG. 11A)) and in the series on BxPC-3 cells (400 ng/ml (FIG. 6A)) was “potently stimulate cell survival” throughout.

“G I G G C P Y W M D R E E C I (GIGGCPYWMDREECI) [ZAP.03G]”: the “binding to scHGF β / activation” value in the series with scHGF β was “significantly impairs its binding; also recorded: significantly impaired”. In addition, the “activation of scHGF / cell survival, in words” value with scHGF (BxPC-3 cells) is recorded as “dramatically hindered its activity”.
